Experimental findings from patent US9150555B2, “Amide derivative and use thereof” (Mitsubishi Tanabe Pharma Corporation, priority 2010, dated 2015) are described below.

Series [1] deals with T1, hERG (Homo sapiens, UniProt Q12809). Put plainly: Effects on hERG current (whole-cell clamping). To be noted: human, HEK 293 cells that express hERG, pH 7.4, hERG inhibition rate (%) (1 μM), 1 μM; tail peak current; hERG-expressed HEK 293 cells. In general terms: hERG is a cardiac potassium channel; its block is linked to QT prolongation.
Experimental: (§1) Dimethylsulfoxide was used as a vehicle and hERG-expressed HEK 293 cells (Cytomyx) were used as test cells. Test cells were once cultured and subdivided and were stored under frozen condition in liquid nitrogen. In the study, thawed and subcultured cells having less than 30 of the passage number were used. Test cells were cultured in a carbon dioxide incubator BNP-110M (Tabai Espec Corp.) at 37±1° C., and 5.0±0.5% of carbon dioxide concentration. The component of culture medium was MEM (Minimum Essential Medium) supplemented with 10 vol % fetal bovine serum (non-activated), 1 mmol/L sodium pyruvate, 0.1 mmol/L non-essential amino acid, 100 U/mL penicillin with 100 μg/mL streptomycin. To select gene-expressing cells, 400 μg/mL G418 Sulphate (Invitrogen) was added to the culture medium. In the dishes for the measurement, the medium which not contain G418 Sulphate (Invitrogen) was used.
(§2) As to seeding of cells for measurement, subcultured cells which became confluent were treated with 0.25% trypsin-solution containing 1 mmol/L EDTA (Invitrogen) to remove from the plate, and seeded on sterilized collagen-coated cover glass (Iwaki, AGC Techno Glass Co., LTD). The medium was exchanged appropriately, including the day of measurement.
(§3) A perfusion method was applied to the experiment. Test cells were perfused (perfusion speed: approximately 4 mL/min) with an external solution containing specified concentrations of test compounds (component of external solution: 137 mmol/L of sodium chloride, 4 mmol/L of potassium chloride, 10 mmol/L of HEPES, 1.8 mmol/L of calcium chloride, 1 mmol/L of magnesium chloride and 10 mmol/L of glucose; adjusted to pH 7.4±0.1 with sodium hydroxide aqueous solution). […] When effects were observed, the perfusion was continued until the maximum response was observed. […] The data were obtained from one experiment or more and the cells which were incubated in a carbon dioxide incubator after seeding and attached to cover slips were used for the measurement.
(§4) A whole-cell clamping method was applied to the measurement. Test cells were perfused (perfusion speed: approximately 4 mL/min) with an external solution (component of external solution: 137 mmol/L of sodium chloride, 4 mmol/L of potassium chloride, 10 mmol/L of HEPES, 1.8 mmol/L of calcium chloride, 1 mmol/L of magnesium chloride and 10 mmol/L of glucose; adjusted to pH 7.4±0.1 with sodium hydroxide aqueous solution). A glass electrode with a resistance of 2 to 6 MΩ, filled with an internal solution (component: 130 mmol/L of potassium chloride, 1 mmol/L of magnesium chloride, 5 mmol/L of EGTA, 10 mmol/L of HEPES and 5 mmol/L of ATP adjusted to pH 7.2±0.1 with sodium hydroxide aqueous solution) was used. After rupturing cell membrane with glass electrode, the cell membrane voltage was held at −80 mV via a patch clamp software (pCLAMP9 [Axon CNS], Molecular Devices) using patch clamp amplifier (EPC8, HEKA). […] Test cells and the cell-attached cover glass were changed every treatment. Temperature of the fluid in a perfusion fluid tank was 24±2° C.
(§5) The obtained current was recorded on a computer via a patch clamp amplifier using patch clamp software. An evaluation item was a tail peak current.
(§6) A tail peak current was analyzed using analyzing software (Clampfit 9 [Axon CNS], MolecularDevices). Each 2 pulses of before and after perfusion of test compound for each concentration was analyzed, and a peak values of the tail current on the pulses were determined. The inhibition ratio was determined according to the following equation:
Series [2] relates to IL-17 production of mouse spleen cells stimulated by rm-IL-23. Put plainly: Production of IL-17 induced when mouse spleen cells were stimulated by recombinant mouse interleukin-23 (rm-IL-23). It counts as cell-based. To be noted: inhibition of IL-17 production, DBA/1J mouse spleen cells, rm-IL-23 1 nmol/L, ELISA. In outline:
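Spleen cells from 6-7 week-old male DBA/1J mice, 2×10^5 cells/well in 10% FCS RPMI1640, cultured 72 h at 37° C with compound (1 to 1,000 nmol/L) plus 1 nmol/L rm-IL-23. IL-17 in supernatant by ELISA; viability by WST-8 absorbance at 450 nm; IC50 by linear regression of inhibition rate.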

For series [3], the system named is Type II collagen-induced arthritis in DBA/1J mice. Put plainly: Type II collagen-induced arthritis in DBA/1J mice. The settings on record: dose showing significant inhibitory effect on arthritis, oral, once a day for three weeks from booster immunization; for minimal effective dose: Mus musculus, 504 h. It counts as in vivo, mouse. On the procedure: Effect on Type II Collagen-Induced Arthritis in DBA/1J Mice
An emulsion was prepared by mixing bovine II collagen (100-200 μg purchased from collagen Gijyutsu Kenshuukai) and Freund's complete adjuvant (Sigma Aldrich) containing killed Mycobacterium tuberculosis H37Ra. Arthritis was induced by immunization through subcutaneous administration of the emulsion to the tail of 6-7 week-old male DBA/1J mouse (Charles River Japan, Inc.), followed by booster immunization three weeks later by administration of an emulsion prepared by mixing bovine II collagen with Freund's incomplete adjuvant (Sigma-Aldrich). Test compound was suspended or dissolved in 0.5% carboxymethylcellulose (Sigma-Aldrich) and repeatedly administered orally once a day at a dose of 0.1 to 10 mg/kg body weight using an oralsonde for three weeks from the day of booster immunization. In this model, the symptom of arthritis of the limbs was each evaluated according to the following evaluation criteria of 0 to 4 scores: 0, No change; 1, edema in only one joint; 2, edema in two or more joints, or light edema of the entire limb; 3, severe edema of the entire limb; 4, severe edema of the entire limb and ankylosis and immovability of joint. The score of arthritis of each mouse was expressed as the total of the scores of the limbs (Maximum: 16 points). On the next day of the last administration, soft X-ray photograph of the limbs was taken with soft X-ray equipment (Omic), and the level of joint destruction was evaluated by observation under a microscope. In each finger of the limbs the score of joint destruction was judged as 0 when no joint destruction was found, and as 1 when one or more destruction was found, and the score of joint destruction of a mouse was expressed as the total of scores for each finger of limb (Maximum: 20). The arthritis score and joint destruction score were expressed as the average value and standard error for each group (n=6-8). Only a vehicle was administered in a control group, and statistical analysis was performed by Dunnett's multiple comparison test, in which the case was judged as significant when the p value was less than 0.05.

Series [4] addresses T2, hERG current in hERG-expressed HEK 293 cells (Homo sapiens, UniProt Q12809).
Experimental: as §1, §2, §3, §4, §5, §6
Series [5] deals with T2, hERG current in hERG-expressed HEK 293 cells. Nature of the series: Effects on hERG current (whole-cell clamping). The settings on record: 1 μM; tail peak current; hERG-expressed HEK 293 cells.
Experimental: as §1, §2, §3, §4, §5, §6
The target of series [6] is T1, hERG. Put plainly: in vitro. The settings on record: pH 7.4, hERG inhibition rate (%) (1 μM).
Experimental: as §1, §2, §3, §4, §5, §6

Where two headings read alike, the source gives them in different places.

T1 sequence (Q12809 whole entry): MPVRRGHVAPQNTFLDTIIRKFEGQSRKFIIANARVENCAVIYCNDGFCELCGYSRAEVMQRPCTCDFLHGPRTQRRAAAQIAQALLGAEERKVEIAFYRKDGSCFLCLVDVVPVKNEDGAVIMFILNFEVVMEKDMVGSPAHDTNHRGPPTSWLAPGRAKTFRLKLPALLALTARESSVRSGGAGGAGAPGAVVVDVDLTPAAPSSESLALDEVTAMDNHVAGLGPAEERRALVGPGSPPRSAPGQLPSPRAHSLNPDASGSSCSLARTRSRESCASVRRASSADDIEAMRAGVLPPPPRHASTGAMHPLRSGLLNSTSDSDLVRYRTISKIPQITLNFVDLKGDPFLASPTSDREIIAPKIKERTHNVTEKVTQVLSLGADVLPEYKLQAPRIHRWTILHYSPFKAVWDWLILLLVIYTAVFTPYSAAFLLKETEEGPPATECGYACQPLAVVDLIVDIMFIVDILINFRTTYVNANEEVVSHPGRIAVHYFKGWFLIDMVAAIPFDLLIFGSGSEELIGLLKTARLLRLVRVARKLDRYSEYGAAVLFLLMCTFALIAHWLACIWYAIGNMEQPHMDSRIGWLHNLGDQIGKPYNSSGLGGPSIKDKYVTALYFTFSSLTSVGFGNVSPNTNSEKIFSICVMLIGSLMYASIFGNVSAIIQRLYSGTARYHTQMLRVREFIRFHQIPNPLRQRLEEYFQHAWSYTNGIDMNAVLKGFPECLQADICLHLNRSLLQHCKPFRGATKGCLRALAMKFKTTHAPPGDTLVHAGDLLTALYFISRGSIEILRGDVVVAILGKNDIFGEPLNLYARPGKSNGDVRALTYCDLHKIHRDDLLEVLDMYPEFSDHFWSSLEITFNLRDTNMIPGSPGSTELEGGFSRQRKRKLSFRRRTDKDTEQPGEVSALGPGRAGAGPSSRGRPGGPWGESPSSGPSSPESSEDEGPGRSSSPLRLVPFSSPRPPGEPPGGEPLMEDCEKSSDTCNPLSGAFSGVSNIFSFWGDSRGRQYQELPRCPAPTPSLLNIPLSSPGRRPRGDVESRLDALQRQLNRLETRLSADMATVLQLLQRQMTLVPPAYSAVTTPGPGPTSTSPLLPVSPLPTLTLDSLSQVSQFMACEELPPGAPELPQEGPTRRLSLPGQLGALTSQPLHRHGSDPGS
T2 sequence (Q12809 whole entry): as above

By inhibition is commonly meant how much of the control response was suppressed. What is called IC50 is the concentration that gives 50% inhibition. Compound `Cc1c(C(=O)Nc2ccc([C@]3(C#N)CC[C@@H](O)CC3)nc2)cnn1-c1ccc(C(F)(F)F)cc1` [Example G6] displayed an inhibition at 1 µM in series [1] of 26%. Moreover, the half-maximal inhibitory concentration (IC50) in series [2] (Mus musculus, 72 h) stood at 73.9 nM. Moreover, in series [3], the “Effective Dose” value turned out to be 10 mg/kg.
In general, minimal effective dose refers to the smallest amount tested that counted as effective. In the case of `Cc1c(C(=O)Nc2ccc(C3CCC(=O)CC3)nc2)cnn1-c1ccc(Cl)cc1` [Example E13], in series [1], the inhibition at 1 µM came to 10.3%. Further, the half-maximal inhibitory concentration (IC50) in series [2] (Mus musculus, 72 h) was found to be 109 nM. The same compound came in with a minimal effective dose in series [3] of 1 mg/kg.
Turning to `Cc1c(C(=O)Nc2ccc([C@]3(C#N)CC[C@@H](O)CC3)nc2)cnn1-c1ccc(Cl)cc1` [Example G1, 1-(4-Chlorophenyl)-N-[6-(r-1-cyano-c-4-hydroxycyclohexyl)pyridin-3-yl]-5-methyl-1H-pyrazole-4-carboxamide], the inhibition at 1 µM in series [1] turned out to be 25.8%. Moreover, in series [2] (Mus musculus, 72 h), the concentration for half-maximal inhibition (IC50) came out at 118 nM. Further, the minimal effective dose in series [3] came out at 3 mg/kg.
With `COCOC1CCC(C#N)(c2ccc(NC(=O)c3cnn(-c4ccc(C)cc4)c3C)cn2)CC1` (stereo not drawn) [Example D3, N-{6-[r-1-Cyano-c-4-(methoxymethoxy)cyclohexyl]pyridin-3-yl}-5-methyl-1-(4-methylphenyl)-1H-pyrazole-4-carboxamide], the IC50 in series [2] (72 hours) is 182 nM. In addition, in series [4], the “hERG inhibition rate (%) (1 μM)” value came out at 7.2%.
Turning to `Cc1c(C(=O)Nc2ccc([C@]3(C#N)CC[C@H](O)CC3)nc2)cnn1-c1ccc(C(F)(F)F)cc1` [Example K2], the minimal effective dose in series [3] turned out to be 10 mg/kg.
As to `Cc1c(C(=O)Nc2ccc([C@]3(C#N)CC[C@@H](O)CC3)nc2)cnn1-c1ccc(F)cc1F` [Example G7], in series [1], the inhibition at 1 µM came out at 5.2%. For the same compound, the IC50 in series [2] (Mus musculus, 72 h) was 198 nM. This compound had a minimal effective dose in series [3] of 0.3 mg/kg.
As for `Cc1cc(NC(=O)c2cnn(-c3ccc(C(F)(F)F)cn3)c2C)cnc1C1=CC[C@@H](N2CCOCC2)CC1` [Example D303], the “hERG inhibition rate (%) (1 μM)” value in series [5] was 22.7%. Moreover, in series [2] (72 hours), the half-maximal inhibitory concentration (IC50) was 48 nM.
Consider `Cc1c(C(=O)Nc2ccc(C3(C#N)CCN(CC(C)(C)O)CC3)nc2)cnn1-c1ccc(Cl)cc1` [Example D116], for which, in series [2] (72 hours), the IC50 was 129 nM. The inhibition at 1 µM in series [6] worked out at 41.2%.
Taken in the same sequence, the figures for `Cc1c(C(=O)Nc2ccc(C3(C#N)CCN(C4CCOCC4)CC3)nc2)cnn1-c1ccc(C(F)(F)F)cc1` [Example E7] were 349 nM and 21.1%.
In the case of `Cc1c(C(=O)Nc2ccc(C3(C#N)CCN([C@H]4CCO[C@H]4C)CC3)nc2)cnn1-c1ccc(C(F)(F)F)cn1` (relative stereo) [Example D8, cis-N-{6-[4-Cyano-1-(2-methyltetrahydrofuran-3-yl)piperidin-4-yl]pyridin-3-yl}-5-methyl-1-[5-(trifluoromethyl)pyridin-2-yl]-1H-pyrazole-4-carboxamide], in series [2] (72 hours), the IC50 was 114 nM. The inhibition at 1 µM in series [6] worked out at 15.8%.
Regarding `Cc1c(C(=O)Nc2ccc(C3(C#N)CCN(CC(C)(C)O)CC3)nc2)cnn1-c1ccc(C2CC2)cn1` [Example D12, N-{6-[4-Cyano-1-(2-hydroxy-2-methylpropyl)piperidin-4-yl]pyridin-3-yl}-1-(5-cyclopropylpyridin-2-yl)-5-methyl-1H-pyrazole-4-carboxamide], the IC50 in series [2] (72 hours) was 117 nM. In addition, testing at 1 µM in series [6] gave an inhibition of 29.2%.
In series [3], `Cc1cc(NC(=O)c2cnn(-c3ccc(C(F)(F)F)cc3)c2C)cnc1C1=CCC(N2CCOCC2)CC1` (stereo not drawn) [Example E24] gave a minimal effective dose of 1 mg/kg.
Compound `Cc1c(C(=O)Nc2ccc([C@]3(C#N)CC[C@@H](O)CC3)nc2)cnn1-c1ccc(F)cc1` [Example G2, N-[6-(r-1-cyano-c-4-hydroxycyclohexyl)pyridin-3-yl]-1-(4-fluorophenyl)-5-methyl-1H-pyrazole-4-carboxamide] came in with an inhibition at 1 µM in series [1] of 15.2%. Further, the IC50 in series [2] (Mus musculus, 72 h) is 194 nM. The compound further came in with a minimal effective dose in series [3] of 1 mg/kg.
Turning to `Cc1c(C(=O)Nc2ccc(C3(C#N)CCN([C@H]4CCO[C@H]4C)CC3)nc2)cnn1-c1ccc(C2CC2)cn1` (relative stereo) [Example D10, cis-N-{6-[4-Cyano-1-(2-methyltetrahydrofuran-3-yl)piperidin-4-yl]pyridin-3-yl}-1-(5-cyclopropylpyridin-2-yl)-5-methyl-1H-pyrazole-4-carboxamide], the IC50 in series [2] (72 hours) stood at 120 nM. In series [6], this compound showed an inhibition at 1 µM of 6.7%.
Turning to `Cc1c(C(=O)Nc2ccc([C@]3(C#N)CC[C@@H](N4CCOCC4)CC3)nc2)cnn1-c1ccc(C(F)(F)F)cc1` [Example D146], the inhibition at 1 µM in series [1] is 47.2%. For the same compound, in series [2] (Mus musculus, 72 h), the IC50 came out at 46.6 nM. In series [3], this compound returned a minimal effective dose of 0.1 mg/kg.
Compound `Cc1ccc(-n2ncc(C(=O)Nc3ccc([C@]4(C#N)CC[C@@H](O)CC4)nc3)c2C)cc1` [Example G3, N-[6-(r-1-Cyano-c-4-hydroxycyclohexyl)pyridin-3-yl]-5-methyl-1-(4-methylphenyl)-1H-pyrazole-4-carboxamide] came in with an inhibition at 1 µM in series [1] of 4.4%. In addition, in series [2] (Mus musculus, 72 h), the IC50 stood at 91.8 nM. Also, the minimal effective dose in series [3] is 1 mg/kg.
As to `Cc1c(C(=O)Nc2ccc(C3(C#N)CCN(CC(C)(C)O)CC3)nc2)cnn1-c1ccc(C(F)(F)F)cn1` [Example D9, N-{6-[4-Cyano-1-(2-hydroxy-2-methylpropyl)piperidin-4-yl]pyridin-3-yl}-5-methyl-1-[5-(trifluoromethyl)pyridin-2-yl]-1H-pyrazole-4-carboxamide], the IC50 in series [2] (72 hours) is 76.7 nM. In series [6], this compound came in with an inhibition at 1 µM of 42.1%.
As to `CS(=O)(=O)O.Cc1cc(NC(=O)c2cnn(-c3ccc(C(F)(F)F)cn3)c2C)cnc1C1=CCC(N2CCOCC2)CC1` (stereo not drawn) [Example D20, 5-Methyl-N-{5-methyl-6-[4-(morpholin-4-yl)cyclohex-1-en-1-yl]pyridin-3-yl}-1-[5-(trifluoromethyl)pyridin-2-yl]-1H-pyrazole-4-carboxamide mesylate], in series [1], the inhibition at 1 µM turned out to be 32.2%. The IC50 in series [2] (Mus musculus, 72 h) was determined as 56.4 nM. The minimal effective dose in series [3] turned out to be 1 mg/kg.
For the compound `Cc1c(C(=O)Nc2ccc(C3(C#N)CCN(CC(C)(C)O)CC3)nc2)cnn1-c1ccc(C(F)(F)F)cc1` [Example D117], the IC50 in series [2] (72 hours) was determined as 57 nM. The inhibition at 1 µM in series [6] is 35.6%.
Turning to `Cc1c(C(=O)Nc2ccc(C3(C#N)CCN([C@H]4CCO[C@H]4C)CC3)nc2)cnn1-c1ccc(C(F)(F)F)cc1` (relative stereo) [Example D11, cis-N-{6-[4-Cyano-1-(2-methyltetrahydrofuran-3-yl)piperidin-4-yl]pyridin-3-yl}-5-methyl-1-[4-(trifluoromethyl)phenyl]-1H-pyrazole-4-carboxamide], the IC50 in series [2] (72 hours) was determined as 53.4 nM. This compound registered an inhibition at 1 µM in series [6] of 21%.
For the compound `Cc1ccc(-n2ncc(C(=O)Nc3ccc(C4(C#N)CCC(N5CCOCC5)CC4)nc3)c2C)cc1.Cl` (stereo not drawn) [Example D2, N-{6-[r-1-Cyano-c-4-(morpholin-4-yl)cyclohexyl]pyridin-3-yl}-5-methyl-1-(4-methylphenyl)-1H-pyrazole-4-carboxamide hydrochloride], the “hERG inhibition rate (%) (1 μM)” value in series [5] worked out at 43.4%. In addition, the IC50 in series [2] (72 hours) turned out to be 193 nM.
